Test results published in PubChem BioAssay (NCI).
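Cells were grown in 96-well plates and exposed to each compound for 48 hours at five concentrations; endpoints were interpolated linearly between bracketing concentrations, or set to the highest concentration if not reached. TGI is the concentration that stops growth completely.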

Tests used:
Test in all cases: DTP human tumour cell line panel, 48 h
MDA-N = test system: MDA-N
EKVX NSCLC = test system: EKVX NSCLC
M14 melanoma = test system: M14 melanoma
NCI-H23 lung = test system: NCI-H23 lung
CCRF-CEM leukemia = test system: CCRF-CEM leukemia
HOP-92 NSCLC = test system: HOP-92 NSCLC
HT29 colon = test system: HT29 colon
ACHN renal = test system: ACHN renal
OVCAR-3 ovarian = test system: OVCAR-3 ovarian
IGROV1 ovarian = test system: IGROV1 ovarian
HOP-62 NSCLC = test system: HOP-62 NSCLC
A549 NSCLC = test system: A549 NSCLC
SK-MEL-28 melanoma = test system: SK-MEL-28 melanoma
KM12 colon = test system: KM12 colon
SK-MEL-2 melanoma = test system: SK-MEL-2 melanoma
PC-3 prostate = test system: PC-3 prostate
SK-OV-3 ovarian = test system: SK-OV-3 ovarian
TK-10 renal = test system: TK-10 renal
SW-620 colon = test system: SW-620 colon
786-0 renal = test system: 786-0 renal
U251 CNS = test system: U251 CNS
CAKI-1 renal = test system: CAKI-1 renal
MDA-MB-231 breast = test system: MDA-MB-231 breast
UO-31 renal = test system: UO-31 renal
HL-60(TB) leukemia = test system: HL-60(TB) leukemia
MALME-3M melanoma = test system: MALME-3M melanoma
MOLT-4 leukemia = test system: MOLT-4 leukemia
COLO 205 colon = test system: COLO 205 colon
SF-268 CNS = test system: SF-268 CNS
HCC-2998 colon = test system: HCC-2998 colon
RPMI-8226 leukemia = test system: RPMI-8226 leukemia
MDA-MB-435 = test system: MDA-MB-435
SR leukemia = test system: SR leukemia
MCF7 breast = test system: MCF7 breast
T-47D breast = test system: T-47D breast
OVCAR-4 ovarian = test system: OVCAR-4 ovarian
UACC-62 melanoma = test system: UACC-62 melanoma
NCI-H460 lung = test system: NCI-H460 lung
LOX IMVI melanoma = test system: LOX IMVI melanoma
SF-539 CNS = test system: SF-539 CNS
NCI/ADR-RES ovarian = test system: NCI/ADR-RES ovarian
SF-295 CNS = test system: SF-295 CNS
HS 578T breast = test system: HS 578T breast
SK-MEL-5 melanoma = test system: SK-MEL-5 melanoma
NCI-H226 lung = test system: NCI-H226 lung
SNB-19 CNS = test system: SNB-19 CNS
OVCAR-5 ovarian = test system: OVCAR-5 ovarian
RXF 393 renal = test system: RXF 393 renal
UACC-257 melanoma = test system: UACC-257 melanoma
OVCAR-8 ovarian = test system: OVCAR-8 ovarian
SN12C renal = test system: SN12C renal
SNB-75 CNS = test system: SNB-75 CNS
HCT-15 colon = test system: HCT-15 colon
HCT-116 colon = test system: HCT-116 colon
DU-145 prostate = test system: DU-145 prostate
K-562 leukemia = test system: K-562 leukemia
NCI-H522 lung = test system: NCI-H522 lung
A498 renal = test system: A498 renal

Nc1nc2c(ncn2C2C=CC(COS(N)(=O)=O)C2)c(=O)[nH]1 (stereo not given)
TGI (MDA-N): > 100 µM
TGI (EKVX NSCLC): > 100 µM
TGI (M14 melanoma): > 100 µM
TGI (NCI-H23 lung): > 100 µM
TGI (CCRF-CEM leukemia): > 100 µM
TGI (HOP-92 NSCLC): > 100 µM
TGI (HT29 colon): > 100 µM
TGI (ACHN renal): > 100 µM
TGI (OVCAR-3 ovarian): > 100 µM
TGI (IGROV1 ovarian): > 100 µM
TGI (HOP-62 NSCLC): > 100 µM
TGI (A549 NSCLC): > 100 µM
TGI (SK-MEL-28 melanoma): > 100 µM
TGI (KM12 colon): > 100 µM
TGI (SK-MEL-2 melanoma): > 100 µM
TGI (PC-3 prostate): > 100 µM
TGI (SK-OV-3 ovarian): > 100 µM
TGI (TK-10 renal): > 100 µM
TGI (SW-620 colon): > 100 µM
TGI (786-0 renal): > 100 µM
TGI (U251 CNS): > 100 µM
TGI (CAKI-1 renal): > 100 µM
TGI (MDA-MB-231 breast): > 100 µM
TGI (UO-31 renal): > 100 µM
TGI (HL-60(TB) leukemia): > 100 µM
TGI (MALME-3M melanoma): > 100 µM
TGI (MOLT-4 leukemia): > 100 µM
TGI (COLO 205 colon): > 100 µM
TGI (SF-268 CNS): > 100 µM
TGI (HCC-2998 colon): > 100 µM
TGI (RPMI-8226 leukemia): > 100 µM
TGI (MDA-MB-435): > 100 µM
TGI (SR leukemia): > 100 µM
TGI (MCF7 breast): > 100 µM
TGI (T-47D breast): > 100 µM
TGI (OVCAR-4 ovarian): > 100 µM
TGI (UACC-62 melanoma): > 100 µM
TGI (NCI-H460 lung): > 100 µM
TGI (LOX IMVI melanoma): > 100 µM
TGI (SF-539 CNS): > 100 µM
TGI (NCI/ADR-RES ovarian): > 100 µM
TGI (SF-295 CNS): > 100 µM
TGI (HS 578T breast): > 100 µM
TGI (SK-MEL-5 melanoma): > 100 µM
TGI (NCI-H226 lung): > 100 µM
TGI (SNB-19 CNS): > 100 µM
TGI (OVCAR-5 ovarian): > 100 µM
TGI (RXF 393 renal): > 100 µM
TGI (UACC-257 melanoma): > 100 µM
TGI (OVCAR-8 ovarian): > 100 µM
TGI (SN12C renal): > 100 µM
TGI (SNB-75 CNS): > 100 µM
TGI (HCT-15 colon): > 100 µM
TGI (HCT-116 colon): > 100 µM
TGI (DU-145 prostate): > 100 µM
TGI (K-562 leukemia): > 100 µM

COc1ccc(C=C2C(=O)NC(=S)NC2=O)c2ccccc12
TGI (MDA-N): 40.6 µM
TGI (EKVX NSCLC): > 100 µM
TGI (M14 melanoma): > 100 µM
TGI (NCI-H23 lung): > 100 µM
TGI (CCRF-CEM leukemia): > 100 µM
TGI (HOP-92 NSCLC): > 100 µM
TGI (HT29 colon): 77.3 µM
TGI (NCI-H522 lung): > 100 µM
TGI (ACHN renal): > 100 µM
TGI (OVCAR-3 ovarian): 75.7 µM
TGI (IGROV1 ovarian): > 100 µM
TGI (HOP-62 NSCLC): > 100 µM
TGI (SK-MEL-28 melanoma): > 100 µM
TGI (KM12 colon): > 100 µM
TGI (SK-MEL-2 melanoma): 66.5 µM
TGI (PC-3 prostate): 83.3 µM
TGI (SK-OV-3 ovarian): > 100 µM
TGI (TK-10 renal): 58.2 µM
TGI (SW-620 colon): > 100 µM
TGI (786-0 renal): > 100 µM
TGI (U251 CNS): 83.3 µM
TGI (CAKI-1 renal): > 100 µM
TGI (MDA-MB-231 breast): > 100 µM
TGI (UO-31 renal): > 100 µM
TGI (HL-60(TB) leukemia): 52 µM
TGI (MOLT-4 leukemia): > 100 µM
TGI (SF-268 CNS): > 100 µM
TGI (HCC-2998 colon): > 100 µM
TGI (RPMI-8226 leukemia): > 100 µM
TGI (MDA-MB-435): > 100 µM
TGI (SR leukemia): 87.1 µM
TGI (MCF7 breast): > 100 µM
TGI (T-47D breast): > 100 µM
TGI (OVCAR-4 ovarian): > 100 µM
TGI (NCI-H460 lung): > 100 µM
TGI (LOX IMVI melanoma): > 100 µM
TGI (SF-539 CNS): 57.7 µM
TGI (NCI/ADR-RES ovarian): > 100 µM
TGI (SF-295 CNS): > 100 µM
TGI (HS 578T breast): 60.9 µM
TGI (SK-MEL-5 melanoma): > 100 µM
TGI (NCI-H226 lung): 0.7 µM
TGI (OVCAR-5 ovarian): > 100 µM
TGI (RXF 393 renal): 51.1 µM
TGI (UACC-257 melanoma): 41.5 µM
TGI (OVCAR-8 ovarian): > 100 µM
TGI (A498 renal): 479 nM
TGI (HCT-15 colon): > 100 µM
TGI (HCT-116 colon): > 100 µM
TGI (DU-145 prostate): 64.7 µM
TGI (K-562 leukemia): > 100 µM

Cc1cc2nn(C3CCCO3)nc2cc1C (stereo not given)
TGI (MDA-N): > 100 µM
TGI (EKVX NSCLC): > 100 µM
TGI (M14 melanoma): > 100 µM
TGI (NCI-H23 lung): > 100 µM
TGI (CCRF-CEM leukemia): > 100 µM
TGI (HT29 colon): > 100 µM
TGI (NCI-H522 lung): > 100 µM
TGI (OVCAR-3 ovarian): > 100 µM
TGI (IGROV1 ovarian): > 100 µM
TGI (HOP-62 NSCLC): > 100 µM
TGI (A549 NSCLC): > 100 µM
TGI (SK-MEL-2 melanoma): > 100 µM
TGI (PC-3 prostate): > 100 µM
TGI (SK-OV-3 ovarian): > 100 µM
TGI (TK-10 renal): > 100 µM
TGI (786-0 renal): > 100 µM
TGI (U251 CNS): > 100 µM
TGI (CAKI-1 renal): > 100 µM
TGI (MDA-MB-231 breast): > 100 µM
TGI (MALME-3M melanoma): > 100 µM
TGI (MOLT-4 leukemia): > 100 µM
TGI (COLO 205 colon): > 100 µM
TGI (SF-268 CNS): > 100 µM
TGI (HCC-2998 colon): > 100 µM
TGI (MDA-MB-435): > 100 µM
TGI (SR leukemia): > 100 µM
TGI (MCF7 breast): > 100 µM
TGI (T-47D breast): > 100 µM
TGI (OVCAR-4 ovarian): > 100 µM
TGI (UACC-62 melanoma): > 100 µM
TGI (NCI-H460 lung): > 100 µM
TGI (SF-539 CNS): > 100 µM
TGI (NCI/ADR-RES ovarian): > 100 µM
TGI (SF-295 CNS): > 100 µM
TGI (HS 578T breast): > 100 µM
TGI (SK-MEL-5 melanoma): > 100 µM
TGI (NCI-H226 lung): > 100 µM
TGI (OVCAR-5 ovarian): > 100 µM
TGI (RXF 393 renal): > 100 µM
TGI (UACC-257 melanoma): > 100 µM
TGI (OVCAR-8 ovarian): > 100 µM
TGI (A498 renal): > 100000 nM
TGI (SN12C renal): > 100 µM
TGI (SNB-75 CNS): > 100 µM
TGI (HCT-15 colon): > 100 µM
TGI (HCT-116 colon): > 100 µM
TGI (DU-145 prostate): > 100 µM
TGI (K-562 leukemia): > 100 µM
